Measured values reported in US6110967A, “Epoxysuccinamide derivative or salt thereof” (Taiho Pharmaceuticals Co., Ltd., priority 1997, dated 2000).
Where a name gives a salt, the structure may show the parent alone.

Legend:
Cathepsin L = biological target: T1, Cathepsin L (Rattus norvegicus, UniProt P07154); assay: Determination of inhibition activity against cathepsin L (substrate Z-Phe-Arg-MCA); format: biochemical; conditions: cathepsin L purified from rat liver, pH 5.5, 30° C., 10 minutes
T1 construct: extracted from a rat liver and completely purified; from tissue; host or cells: rat liver
Method: (§1) Determination of inhibition activity against cathepsin L and cathepsin B:
Cathepsin L that extracted from a rat liver and completely purified in accordance with the method described in J. Biochem., 84, 650-671 (1978) was used, and as a substrate thereof, Z-Phe-Arg-MCA was used.
(§2) Each cathepsin was diluted with a diluent (0.1% Brij 35) to adjust its concentration to 0.3 U (0.1 U: a concentration at which 1.0 nmol of MCA is released per minute at 37° C.). An activator/buffer (340 mM sodium acetate, 60 mM acetic acid, 4 mM disodium EDTA; pH 5.5; 250 μl) was added to the solution (500 μl). After the mixture was incubated for 1 minute at 30° C., a specimen solution of the predetermined concentration and a substrate solution ([…]) were added to conduct a reaction for 10 minutes. The reaction was stopped with a reaction terminator (100 mM sodium monochloroacetate, […] sodium acetate, […] acetic acid; pH 4.3; 1 ml) to determine the fluorescence intensity of aminomethylcoumarin isolated under fluorescence 460 nm in wavelength obtained by excitation at a wavelength of 370 nm using a fluorometer.

Cathepsin B = biological target: T2, Cathepsin B (Rattus norvegicus, UniProt P00787); assay: Determination of inhibition activity against cathepsin B (substrate Z-Arg-Arg-MCA); format: biochemical; conditions: cathepsin B purified from rat liver, pH 5.5, 30° C., 10 minutes
T2 construct: extracted from a rat liver and completely purified; from tissue; host or cells: rat liver
Method: as §1
One that extracted from a rat liver and completely purified in accordance with the method described in Biochem. Biophys. Res. Commun., 83, 513-520 (1978) was used as cathepsin B, and as a substrate thereof, Z-Arg-Arg-MCA was used.
as §2

T1 sequence (P07154 114-288 limits assumed): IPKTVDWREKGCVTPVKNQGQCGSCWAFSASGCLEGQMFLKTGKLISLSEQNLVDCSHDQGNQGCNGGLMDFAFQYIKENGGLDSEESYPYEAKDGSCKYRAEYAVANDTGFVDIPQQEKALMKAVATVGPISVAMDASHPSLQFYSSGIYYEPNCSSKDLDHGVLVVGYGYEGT
T1 sequence (P07154 291-334 limits assumed): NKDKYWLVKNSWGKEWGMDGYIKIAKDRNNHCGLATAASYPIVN
T2 sequence (P00787 80-126 limits assumed): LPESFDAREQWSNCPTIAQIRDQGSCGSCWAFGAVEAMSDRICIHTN
T2 sequence (P00787 129-333 limits assumed): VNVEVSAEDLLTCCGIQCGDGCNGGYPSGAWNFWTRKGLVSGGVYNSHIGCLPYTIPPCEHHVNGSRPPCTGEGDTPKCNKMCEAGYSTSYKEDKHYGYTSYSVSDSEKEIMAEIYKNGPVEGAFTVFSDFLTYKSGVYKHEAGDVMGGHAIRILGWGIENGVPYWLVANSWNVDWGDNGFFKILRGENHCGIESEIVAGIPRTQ

With CN(C)C(=O)[C@H](Cc1ccccc1)NC(=O)[C@H]1O[C@@H]1C(=O)Nc1cccc(CN)c1 [Compound 6, N-{L-3-trans-[3-(Aminomethyl)phenylcarbamoyl]oxirane-2-carbonyl}-L-phenylalanine dimethylamide hydrochloride] as the molecule, how does the IC50 (Cathepsin L) read?
The IC50 was 200 nM.

And the IC50 (Cathepsin B)?
The IC50 was > 100000 nM.

CN(C)C(=O)[C@H](Cc1ccccc1)NC(=O)[C@H]1O[C@@H]1C(=O)Nc1ccc(CN)cc1 [Compound 8, N-{L-3-trans-[4-(Aminomethyl)phenylcarbamoyl]oxirane-2-carbonyl}-L-phenylalanine dimethylamide hydrochloride] was tested. Which IC50 (Cathepsin L) did it give?
Its IC50 is < 100 nM.

What about the IC50 (Cathepsin B) of the same molecule?
The IC50 was > 100000 nM.

With CN(C)C(=O)[C@H](Cc1ccccc1)NC(=O)[C@H]1O[C@@H]1C(=O)N1CCN(Cc2ccccc2)CC1 [Compound 9, N-[L-3-trans-(4-Benzylpiperazin-1-yl-carbonyl)oxirane-2-carbonyl]-L-phenylalanine dimethylamide] as the molecule, how does the IC50 (Cathepsin L) read?
Its IC50 is 850 nM.

And the IC50 (Cathepsin B)?
Its IC50 is > 100000 nM.

Which IC50 (Cathepsin L) does the source give for CN(C)C(=O)[C@H](Cc1ccccc1)NC(=O)[C@H]1O[C@@H]1C(=O)N(CCN)c1ccccc1 [Compound 11, N-{L-3-trans-[N-(2-Aminoethyl)-N-phenylcarbamoyl]oxirane-2-carbonyl}-L-phenylalanine dimethylamide hydrochloride] here?
The IC50 was 2400 nM.

What about the “IC50 (M) Cathepsin B” value (Cathepsin B) of the same molecule?
Its value is “No inhibition”.

How did the IC50 (Cathepsin L) turn out when CC(C)(C)OC(=O)NCc1ccc(NC(=O)[C@H]2O[C@@H]2C(=O)N[C@@H](Cc2ccccc2)C(=O)NCCc2ccccc2)cc1 [Compound 12, N-{L-3-trans-[4-(t-Butoxycarbonylaminomethyl)phenylcarbamoyl]oxirane-2-carbonyl}-L-phenylalanine-2-phenylethylamide] was run?
The IC50 was 2.5 nM.

And the IC50 (Cathepsin B)?
The IC50 was > 10000 nM.

For CN(C)C(=O)[C@H](Cc1ccccc1)NC(=O)[C@H]1O[C@@H]1C(=O)N1CCN(C(=O)OC(C)(C)C)CC1 [Compound 15, N-[L-3-trans-(4-t-Butoxycarbonylpiperazin-1-yl-carbonyl)-oxirane-2-carbonyl]-L-phenylalanine dimethylamide], which IC50 (Cathepsin L) is on record?
The IC50 was 220 nM.

And the IC50 (Cathepsin B)?
Its IC50 is > 100000 nM.

For CN(C)C(=O)[C@H](Cc1ccccc1)NC(=O)[C@H]1O[C@@H]1C(=O)NC1CCN(Cc2ccccc2)CC1 [Compound 18, N-{L-3-trans-[(1-Benzylpiperidin-4-yl)carbamoyl]oxirane-2-carbonyl}-L-phenylalanine dimethylamide hydrochloride], which IC50 (Cathepsin L) is on record?
The IC50 was 290 nM.

And the IC50 (Cathepsin B)?
The IC50 was > 100000 nM.

Which IC50 (Cathepsin L) does the source give for CN(C)C(=O)[C@H](Cc1ccccc1)NC(=O)[C@H]1O[C@@H]1C(=O)NCc1ccc(N)cc1 [Compound 20, N-[L-3-trans-(4-Aminobenzylcarbamoyl)oxirane-2-carbonyl]-L-phenylalanine dimethylamide hydrochloride] here?
The IC50 was 670 nM.

And the IC50 (Cathepsin B)?
Its IC50 is > 100000 nM.

With CN(C)C(=O)[C@H](Cc1ccccc1)NC(=O)[C@H]1O[C@@H]1C(=O)NCCNC(=O)OCc1ccccc1 [Compound 22, N-{L-3-trans-[2-(Benzyloxycarbonylamino)ethylcarbamoyl]oxirane-2-carbonyl}-L-phenylalanine dimethylamide] as the molecule, how does the IC50 (Cathepsin L) read?
Its IC50 is 470 nM.

And the IC50 (Cathepsin B)?
The IC50 was > 100000 nM.

Which IC50 (Cathepsin L) does the source give for CCc1ccc(NC(=O)[C@H]2O[C@@H]2C(=O)N[C@@H](Cc2ccccc2)C(=O)N(C)C)cc1 [Compound 29, N-[L-3-trans-(4-Ethylphenylcarbamoyl)oxirane-2-carbonyl]-L-phenylalanine dimethylamide] here?
The IC50 was 2.2 nM.

What about the IC50 (Cathepsin B) of the same molecule?
The IC50 was > 100000 nM.

How did the IC50 (Cathepsin L) turn out when CN(C)C(=O)[C@H](Cc1ccccc1)NC(=O)[C@H]1O[C@@H]1C(=O)Nc1ccc(C(C)(C)C)cc1 [Compound 37, N-[L-3-trans-(4-t-Butylphenylcarbamoyl)oxirane-2-carbonyl]-L-phenylalanine dimethylamide] was run?
Its IC50 is 45 nM.

What about the IC50 (Cathepsin B) of the same molecule?
The IC50 was > 100000 nM.

CN(C)C(=O)[C@H](Cc1ccccc1)NC(=O)[C@H]1O[C@@H]1C(=O)NCCc1csc(N)n1 [Compound 39, N-{L-3-trans-[2-(2-Aminothiazol-4-yl)ethylcarbamoyl]oxirane-2-carbonyl}-L-phenylalanine dimethylamide hydrochloride] was tested. Which IC50 (Cathepsin L) did it give?
Its IC50 is 350 nM.

What about the IC50 (Cathepsin B) of the same molecule?
Its IC50 is > 100000 nM.

With Cc1cc(NC(=O)[C@H]2O[C@@H]2C(=O)N[C@@H](Cc2ccccc2)C(=O)N(C)C)no1 [Compound 41] as the molecule, how does the IC50 (Cathepsin L) read?
Its IC50 is 33 nM.

And the IC50 (Cathepsin B)?
The IC50 was > 10000 nM.

How did the IC50 (Cathepsin L) turn out when CN(C)C(=O)[C@H](Cc1ccccc1)NC(=O)[C@H]1O[C@@H]1C(=O)Nc1ccc(CNC(=O)c2ccccc2)cc1 [Compound 44, N-{L-3-trans-[4-(Benzoylaminomethyl)phenylcarbamoyl]oxirane-2-carbonyl}-L-phenylalanine dimethylamide] was run?
Its IC50 is 6 nM.

And the IC50 (Cathepsin B)?
Its IC50 is 77000 nM.

What does the source list for CN(C)C(=O)[C@H](Cc1ccccc1)NC(=O)[C@H]1O[C@@H]1C(=O)NCCNc1ccc([N+](=O)[O-])cn1 [Compound 46, N-{L-3-trans-[2-(5-Nitropyridin-2-yl)aminoethylcarbamoyl]oxirane-2-carbonyl}-L-phenylalanine dimethylamide]?
IC50 (Cathepsin L): 34 nM; IC50 (Cathepsin B): 85000 nM

For CN(C)C(=O)[C@H](Cc1ccccc1)NC(=O)[C@H]1O[C@@H]1C(=O)Nc1ccc(Oc2ccccc2)cc1 [Compound 48, N-[L-3-trans-(4-Phenoxyphenylcarbamoyl)oxirane-2-carbonyl]-L-phenylalanine dimethylamide], which IC50 (Cathepsin L) is on record?
Its IC50 is 60 nM.

And the IC50 (Cathepsin B)?
Its IC50 is 45000 nM.

What does the source list for CN(C)C(=O)[C@H](Cc1ccccc1)NC(=O)[C@H]1O[C@@H]1C(=O)NCCc1ccccn1 [Compound 56, N-{L-3-trans-[2-(Pyridin-2-yl)ethylcarbamoyl]oxirane-2-carbonyl}-L-phenylalanine dimethylamide]?
IC50 (Cathepsin L): 47 nM; IC50 (Cathepsin B): > 10000 nM

With CNC(=O)[C@H](Cc1ccccc1)NC(=O)[C@H]1O[C@@H]1C(=O)NCCc1ccccn1 [Compound 62, N-{L-3-trans-[2-(Pyridin-2-yl)ethylcarbamoyl]oxirane-2-carbonyl}-L-phenylalanine methylamide] as the molecule, how does the IC50 (Cathepsin L) read?
The IC50 was < 1 nM.

What about the IC50 (Cathepsin B) of the same molecule?
Its IC50 is > 100000 nM.

Which results are given for CN(C)C(=O)[C@H](Cc1ccccc1)NC(=O)[C@H]1O[C@@H]1C(=O)NCCc1ccc(N)cc1 [Compound 73, N-{L-3-trans-[2-(4-Aminophenyl)ethylcarbamoyl]oxirane-2-carbonyl}-L-phenylalanine dimethylamide]?
IC50 (Cathepsin L): 94 nM; IC50 (M) Cathepsin B (Cathepsin B): No inhibition

With CN(C)C(=O)[C@H](Cc1ccccc1)NC(=O)[C@H]1O[C@@H]1C(=O)NCCc1ccc(N)cn1 [Compound 77, N-{L-3-trans-[2-(5-Aminopyridin-2-yl)ethylcarbamoyl]oxirane-2-carbonyl}-L-phenylalanine dimethylamide] as the molecule, how does the IC50 (Cathepsin L) read?
The IC50 was 82 nM.

What about the IC50 (Cathepsin B) of the same molecule?
The IC50 was > 10000 nM.

CC(=N)Nc1ccc(CCNC(=O)[C@H]2O[C@@H]2C(=O)N[C@@H](Cc2ccccc2)C(=O)N(C)C)cc1 [Compound 86, N-{L-3-trans-[2-(4-Acetoamidinophenyl)ethylcarbamoyl]oxirane-2-carbonyl}-L-phenylalanine dimethylamide hydrobromide] was tested. Which IC50 (Cathepsin L) did it give?
The IC50 was 46 nM.

And the IC50 (Cathepsin B)?
Its IC50 is > 10000 nM.

What does the source list for CN(C)C(=O)[C@H](Cc1ccccc1)NC(=O)[C@H]1O[C@@H]1C(=O)N1CCN(c2nccc(N)n2)CC1 [Compound 90]?
IC50 (Cathepsin L): 97 nM; IC50 (Cathepsin B): > 10000 nM
